Measurements: patent publication US4769374A, “Tetrahydroisoquinoline ethyl esters of 1,4-dihydropyridines and antihypertensive compositions” (Poli Industria Chimica S.p.A., priority 1984, dated 1988)

Assays:
[1] = test system: spontaneous hypertensive rats (systolic pressure of the caudal artery); test: Antihypertensive activity per os in spontaneous hypertensive rats; format: in vivo, rat; conditions: 3 mg/kg p.o., percentage of the decrease of the systolic pressure
Protocol: The antihypertensive activity was determined by administering spontaneous hypertensive rats with the compounds of the invention, by oral route, as a suspension in carboxymethylcellulose containing 0.5% of physiologic solution. […] The obtained results are reported in Table 2, and are expressed as the percentage of the decrease of the sistolic pressure after treatment.

in vivo = conditions: mouse, mice of both sexes, oral, day 14 of observation
Protocol: The acute toxicity was determined on mice of both sexes upon oral administration of the compounds to be tested as a suspension in carboxymethylcellulose containing 0.5% of physiologic solution, and it was expressed as an LD50 value at day 14 of observation.

In the case of `CCOC(=O)C1=C(C)NC(C)=C(C(=O)OCCN2CCc3ccccc3C2)C1c1cccc([N+](=O)[O-])c1` (stereo not drawn) [I, R = C2 H5], the “Pressure variations (pressure time 0 - less pressure after administration), 15 min.” value (“Pressure variations … 15 min.” below) [1] is reported as 43 ± 10.2%, the “Pressure variations (pressure time 0 - less pressure after administration), 1 h” value (shortened to “Pressure variations … 1 h”) [1] is reported as 31 ± 7.1% and the “Pressure variations (pressure time 0 - less pressure after administration), 3 h” value (“Pressure variations … 3 h” for short) [1] is reported as 22 ± 9.4%. For the same compound, the “Pressure variations (pressure time 0 - less pressure after administration), 5 h” value (“Pressure variations … 5 h” below) [1] was 11 ± 6.9% and the LD50 at 336 h (in vivo) was 1000 mg/kg.
In the case of `COC(=O)C1=C(C)NC(C)=C(C(=O)OCCN2CCc3ccccc3C2)C1c1cccc([N+](=O)[O-])c1.Cl` (stereo not drawn) [I, R = CH3, 2-(1,2,3,4-Tetrahydro-isoquinoline-2-yl)ethyl 1,4-dihydro-2,6-dimethyl-4-(3-nitrophenyl)-5-methoxycarbonyl-pyridine-3-carboxylate, mono-hydrochloride], the “Pressure variations … 15 min.” value [1] is reported as 54 ± 6.4%, the “Pressure variations … 1 h” value [1] is reported as 86 ± 7.3% and the “Pressure variations … 3 h” value [1] is reported as 73 ± 12.8%. For the same compound, the “Pressure variations … 5 h” value [1] was 49 ± 8.7% and the LD50 at 336 h (in vivo) was 1000 mg/kg.
With `CC1=C(C(=O)OCCN2CCc3ccccc3C2)C(c2cccc([N+](=O)[O-])c2)C(C(=O)OC(C)C)=C(C)N1` (stereo not drawn) [I, R = CH(CH3)2] the “Pressure variations … 15 min.” value [1] was 39 ± 7.6%, the “Pressure variations … 1 h” value [1] was 38 ± 6.9% and the “Pressure variations … 3 h” value [1] was 18 ± 6.1%. For the same compound, the “Pressure variations … 5 h” value [1] was 2 ± 3.1% and the LD50 at 336 h (in vivo) was 1000 mg/kg.
In the case of `COC(=O)C1=C(C)NC(C)=C(C(=O)OCCN(C)Cc2ccccc2)C1c1cccc([N+](=O)[O-])c1` (stereo not drawn) [Nicardipine, reference compound], the “Pressure variations … 15 min.” value [1] is reported as 49 ± 11.3%, the “Pressure variations … 1 h” value [1] is reported as 52 ± 9.7% and the “Pressure variations … 3 h” value [1] is reported as 36 ± 6.2%. The “Pressure variations … 5 h” value [1] was 21 ± 5.8% and the LD50 at 336 h (in vivo) was 350 mg/kg.
For `COC(=O)C1=C(C)NC(C)=C(C(=O)OC)C1c1ccccc1[N+](=O)[O-]` [Nifedipine, reference compound], the “Pressure variations … 15 min.” value [1] was 41 ± 5.4%, the “Pressure variations … 1 h” value [1] was 23 ± 6.1% and the “Pressure variations … 3 h” value [1] was 12 ± 4.3%. The “Pressure variations … 5 h” value [1] was 9 ± 5.6%.
